Read-outs that look alike come from different tables or passages of the source.
Key:
LoVo Colon cell line = experiment: Cytotoxicity assay using LoVo colon cell line, SRB; type: cell-based; conditions: read-out: Inhibition of LoVo
Summary of the method: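 LoVo cells (4000/well, RPMI 1640 with 10% FBS, 37 °C, 7% CO2) seeded overnight, then exposed 4 days to serial dilutions spanning 5 pM-20 μM or 170 pg/ml-10 μg/ml. Survival by SRB staining; IC50 from curves relative to untreated controls.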

[1] = system: 80S14 (p21-deficient) cells; experiment: Cytotoxicity assay using isogenic cell lines: IC50 in 80S14 (p21-deficient) cells, SRB; type: cell-based, human
Summary of the method: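 80S14 (p21-deficient) cells seeded at 12,000 cells/well overnight, then exposed 5 days at 37 °C to serial dilutions (5 pM–50 μM or 170 pg/ml–10 μg/ml). TCA-fixed, sulforhodamine B-stained, absorbance at 560 nm; IC50 taken from cytotoxicity curves versus untreated controls.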

[2] = Homo sapiens, 96 h, Cellular activity in LoVo cell, 4 days incubation, SRB
[3] = Homo sapiens, 120 h, 80S14 (p21-deficient) cells, 5 days, SRB, class symbols, read-out: IC50 for 80S14
[4] = Cellular activity in LoVo cell, 4 days incubation, SRB
[5] = 80S14 (p21-deficient) cells, 5 days, SRB, class symbols, read-out: IC50 for 80S14
[6] = Homo sapiens, 80S14, 120 h, read-out: IC50 for 80S14 (uM)
[7] = Homo sapiens, 96 h, LoVo colon cells, 4 days incubation, SRB
[8] = Homo sapiens, 120 h, 80S14 p21-deficient cells, 5 days incubation, SRB, read-out: IC50 for 80SI4

Molecule | IC50 (LoVo Colon cell line; [2]) [µM] | IC50 [1, 3] [µM] | also measured
O=C(c1cccs1)c1cnn2c(-c3cccc(-c4ccn(Cc5ccccn5)n4)c3)ccnc12 [Example 517, (7-{3-[1-(Pyridin-2-ylmethyl)-1H-pyrazol-3-yl]phenyl}pyrazolo[1,5-a]pyrimidin-3-yl)(thien-2-yl)methanone] | 0.1 to 1 | < 1 | 
O=C(O)CCC(=O)Nc1cccc(-c2ccnc3c(C(=O)c4cccs4)cnn23)c1 [Example 442, 4-Oxo-4-({3-[3-(thien-2-ylcarbonyl)pyrazolo[1,5-a]pyrimidin-7-yl]phenyl}amino)butanoic acid] | 1 to 20 | 10 to 50 | 
O=C(Nc1cccc(-c2ccnc3c(C(=O)c4cccs4)cnn23)c1)c1c(F)cccc1F [Example 359, 2,6-Difluoro-N-{3-[3-(thien-2-ylcarbonyl)pyrazolo[1,5-a]pyrimidin-7-yl]phenyl}benzamide] | < 0.1 | < 1 | 
CC(CNc1cccc(-c2ccnc3c(C(=O)c4cccs4)cnn23)c1)c1ccccc1 (stereo not shown) [Example 378, (7-{3-[(2-Phenylpropyl)amino]phenyl}pyrazolo[1,5-a]pyrimidin-3-yl)(thien-2-yl)methanone] | 1 to 20 | 1 to 10 | 
C=C(C)CNc1cccc(-c2ccnc3c(C(=O)c4cccs4)cnn23)c1 [Example 434, (7-{3-[(2-Methylprop-2-enyl)amino]phenyl}pyrazolo[1,5-a]pyrimidin-3-yl)(thien-2-yl)methanone] | 0.1 to 1 | 1 to 10 | 
N-{4-Chloro-3-[3-(thien-2-ylcarbonyl)pyrazolo[1,5-a]yrimidin-7-yl]phenyl}-N′-isopropylthiourea [Example 340] |  |  | IC50 (LoVo Colon cell line; [4]): 0.1 to 1 µM; IC50 [1, 5]: 1 to 10 µM
CC(C)=CCNc1cccc(-c2ccnc3c(C(=O)c4cccs4)cnn23)c1 [Example 371, (7-{3-[(3-Methylbut-2-enyl)amino]phenyl}pyrazolo[1,5-a]pyrimidin-3-yl)(thien-2-yl)methanone] | < 0.1 | < 1 | 
O=C(c1cccs1)c1cnn2c(-c3cccc(-c4ccc(CO)cc4)c3)ccnc12 [Example 452, {7-[4′-(Hydroxymethyl)-1,1′-biphenyl-3-yl]pyrazolo[1,5-a]pyrimidin-3-yl}(thien-2-yl)methanone] | < 0.1 | < 1 | 
tert-Butyl 4-[2-oxo-2-({3-[3-(thien-2-ylcarbonyl)pyrazolo[1.5-a]pyrimidin-7-yl]phenyl}amino)ethyl]piperidine-1-carboxylate [Example 392] |  |  | IC50 (LoVo Colon cell line; [4]): < 0.1 µM; IC50 [1, 5]: < 1 µM
Cc1ccc(-c2ccnc3c(C(=O)c4cccs4)cnn23)cc1NC(=O)OC(C)C [Example 314, Isopropyl 2-methyl-5-[3-(2-thienylcarbonyl)pyrazolo[1,5-a]pyrimidin-7-yl]phenylcarbamate] |  |  | IC50 (LoVo Colon cell line; Homo sapiens, LoVo, 96 h): < 0.1 µM; IC50 [1, 6]: < 1 µM
Nc1cc(-c2ccnc3c(C(=O)c4cccs4)cnn23)cs1 [Example 331, [7-(5-Aminothien-3-yl)pyrazolo[1,5-a]pyrimidin-3-yl](thien-2-yl)methanone] | 1 to 20 | 1 to 10 | 
O=C(CC1CCCCC1)Nc1cccc(-c2ccnc3c(C(=O)c4cccs4)cnn23)c1 [Example 74, 2-cyclohexyl-N-{3-[3-(thien-2-ylcarbonyl)pyrazolo[1,5-a]pyrimidin-7-yl]phenyl}acetamide] |  |  | IC50 (LoVo Colon cell line; [7]): < 0.1 µM; IC50 [1, 8]: < 1 µM
O=C(c1cccs1)c1cnn2c(-c3cccc(-c4nnn(Cc5ccccn5)n4)c3)ccnc12 [Example 509, (7-{3-[2-(Pyridin-2-ylmethyl)-2H-tetraazol-5-yl]phenyl}pyrazolo[1,5-a]pyrimidin-3-yl)(thien-2-yl)methanone] | 0.1 to 1 | < 1 | 
CC(C)CC(=O)Nc1cccc(-c2ccnc3c(-c4ccc5c(c4)OCO5)cnn23)c1 [Example 481, N-{3-[3-(1,3-Benzodioxol-5-yl)pyrazolo[1,5-a]pyrimidin-7-yl]phenyl}-3-methylbutanamide] | 0.1 to 1 | 1 to 10 | 
CC(C)CC(=O)Nc1cccc(-c2ccnc3c(-c4cccc(-c5ccccc5)c4)cnn23)c1 [Example 485, N-{3-[3-(1,1′-Biphenyl-3-yl)pyrazolo[1,5-a]pyrimidin-7-yl]phenyl}-3-methylbutanamide] | 1 to 20 | 10 to 50 | 
O=C(NCC1CCCCC1)Nc1cccc(-c2ccnc3c(C(=O)c4cccs4)cnn23)c1 [Example 160, N-(cyclohexylmethyl)-N′-{3-[3-(thien-2-ylcarbonyl)pyrazolo[1,5-a]pyrimidin-7-yl]phenyl}urea] |  |  | IC50 (LoVo Colon cell line; [7]): 0.1 to 1 µM; IC50 [1, 8]: 1 to 10 µM

Molecule | IC50 (LoVo Colon cell line; [2]) [µM] | IC50 [1, 3] [µM] | also measured
O=C(CCCCl)Nc1cccc(-c2ccnc3c(C(=O)c4cccs4)cnn23)c1 [Example 346, 4-Chloro-N-{3-[3-(thien-2-ylcarbonyl)pyrazolo[1,5-a]pyrimidin-7-yl]phenyl}butanamide] | 0.1 to 1 | 1 to 10 | 
O=C(Nc1cccc(-c2ccnc3c(C(=O)c4cccs4)cnn23)c1)c1cccnc1 [Example 290, N-{3-[3-(2-Thienylcarbonyl)pyrazolo[1,5-a]pyrimidin-7-yl]phenyl}nicotinamide] | 0.1 to 1 | < 1 | 
O=C(c1cccs1)c1cnn2c(-c3ccc(F)c(N(C(=O)c4ccccc4Cl)C(=O)c4ccccc4Cl)c3)ccnc12 [Example 438, 2-Chloro-N-(2-chlorobenzoyl)-N-{2-fluoro-5-[3-(thien-2-ylcarbonyl)pyrazolo[1,5-a]pyrimidin-7-yl]phenyl}benzamide] | < 0.1 | < 1 | 
CC(C)CC(=O)Nc1cccc(-c2ccnc3c(-c4ccc(CO)cc4)cnn23)c1 [Example 469, N-(3-{3-[4-(Hydroxymethyl)phenyl]pyrazolo[1,5-a]pyrimidin-7-yl}phenyl)-3-methylbutanamide] | 1 to 20 | 10 to 50 | 
O=C(CC1CC2CCC1C2)Nc1cccc(-c2ccnc3c(C(=O)c4cccs4)cnn23)c1 (stereo not shown) [Example 76, 2-bicyclo[2.2.1]hept-2-yl-N-{3-[3-(thien-2-ylcarbonyl)pyrazolo[1,5-a]pyrimidin-7-yl]phenyl}acetamide] |  |  | IC50 (LoVo Colon cell line; [7]): < 0.1 µM; IC50 [1, 8]: < 1 µM
C=C(CC)CNc1cccc(-c2ccnc3c(C(=O)c4cccs4)cnn23)c1 [Example 435, (7-{3-[(2-Ethylprop-2-enyl)amino]phenyl}pyrazolo[1,5-a]pyrimidin-3-yl)(thien-2-yl)methanone] | 0.1 to 1 | 1 to 10 | 
CC(C)Cn1nnc(-c2cccc(-c3ccnc4c(C(=O)c5cccs5)cnn34)c2)n1 [Example 504, {7-[3-(2-Isobutyl-2H-tetraazol-5-yl)phenyl]pyrazolo[1,5-a]pyrimidin-3-yl}(thien-2-yl)methanone] | 0.1 to 1 | < 1 | 
O=C(c1cccs1)c1cnn2c(-c3cccc(-c4nnn(CCN5CCCC5)n4)c3)ccnc12 [Example 511, (7-{3-[2-(2-Pyrrolidin-1-ylethyl)-2H-tetraazol-5-yl]phenyl}pyrazolo[1,5-a]pyrimidin-3-yl)(thien-2-yl)methanone] | 0.1 to 1 | < 1 | 
C=CCOC(=O)Nc1cccc(-c2cc(C)nc3c(C(=O)c4cccs4)cnn23)c1 [Example 196, allyl 3-[5-methyl-3-(thien-2-ylcarbonyl)pyrazolo[1,5-a]pyrimidin-7-yl]phenylcarbamate] |  |  | IC50 (LoVo Colon cell line; [7]): 0.1 to 1 µM; IC50 [1, 8]: < 1 µM
C=CCCOC(=O)Nc1cccc(-c2cc(C)nc3c(C(=O)c4cccs4)cnn23)c1 [Example 199, but-3-enyl 3-[5-methyl-3-(thien-2-ylcarbonyl)pyrazolo[1,5-a]pyrimidin-7-yl]phenylcarbamate] |  |  | IC50 (LoVo Colon cell line; [7]): < 0.1 µM; IC50 [1, 8]: < 1 µM
O=C(c1cccs1)c1cnn2c(-c3cccc(NCc4cccc(Cl)c4)c3)ccnc12 [Example 365, (7-{3-[(3-Chlorobenzyl)amino]phenyl}pyrazolo[1,5-a]pyrimidin-3-yl)(thien-2-yl)methanone] | 1 to 20 | 10 to 50 | 
CC(C)CC(=O)Nc1cc(-c2ccnc3c(C(=O)c4cccs4)cnn23)ccc1F [Example 342, N-{2-Fluoro-5-[3-(thien-2-ylcarbonyl)pyrazolo[1,5-a]pyrimidin-7-yl]phenyl}-3-methylbutanamide] |  |  | IC50 (LoVo Colon cell line; Homo sapiens, LoVo, 96 h): < 0.1 µM; IC50 [1, 6]: < 1 µM
O=C(c1cccs1)c1cnn2c(-c3cccc(-c4nnn(Cc5cccnc5)n4)c3)ccnc12 [Example 503, (7-{3-[2-(Pyridin-3-ylmethyl)-2H-tetraazol-5-yl]phenyl}pyrazolo[1,5-a]pyrimidin-3-yl)(thien-2-yl)methanone] | 0.1 to 1 | < 1 | 
CC(C)(C)CC(=O)Nc1cccc(-c2ccnc3c(C(=O)c4cccs4)cnn23)c1 [Example 55, 3,3-dimethyl-N-{3-[3-(thien-2-ylcarbonyl)pyrazolo[1,5-a]pyrimidin-7-yl]phenyl}butanamide] |  |  | IC50 (LoVo Colon cell line; Homo sapiens, LoVo, 96 h): < 0.1 µM; IC50 ([1]; Homo sapiens, 80S14, 120 h, read-out: IC50 for 80SI4 (uM)): < 1 µM
O=C(c1cccs1)c1cnn2c(-c3csc([N+](=O)[O-])c3)ccnc12 [Example 328, [7-(5-Nitro-3-thienyl)pyrazolo[1,5-a]pyrimidin-3-yl](2-thienyl)methanone] | 0.1 to 1 | 1 to 10 | 
CC(C)CC(=O)Nc1cccc(-c2ccnc3c(-c4cccc5cccnc45)cnn23)c1 [Example 468, 3-Methyl-N-[3-(3-quinolin-8-ylpyrazolo[1,5-a]pyrimidin-7-yl)phenyl]butanamide] | 0.1 to 1 | 1 to 10 | 

— patent publication US20060063784A1, “Method of using substituted pyrazolo [1,5-a] pyrimidines” (priority 2004, published 2006)
